This is an account of results in ChEMBL document CHEMBL1148075, “Hamacanthins A and B, new antifungal bis indole alkaloids from the deep-water marine sponge, Hamacantha sp” (1994).

Common to all, as to assay type: functional
One experiment deals with Candida albicans. Nature of the experiment: Antifungal activity against Candida albicans ATCC 44506 after 24 hrs by broth microdilution method. The settings on record: ATCC 44506, 24 h. A general note: In broth dilution the organism is exposed to a series of concentrations in liquid medium.
A further experiment concerns Cryptococcus neoformans. The experiment is described as follows: Antifungal activity against Cryptococcus neoformans ATCC 32045 after 48 hrs by broth microdilution method. As to conditions: ATCC 32045, 48 h.
A further experiment concerns Bacillus subtilis. The experiment is described as follows: Antimicrobial activity against Bacillus subtilis ATCC 6633 after 24 hrs by broth microdilution method. The settings on record: ATCC 6633, 24 h.

Converted amounts (≈) assume the structure as drawn.

As to `O=C1N[C@@H](c2c[nH]c3cc(Br)ccc23)CN=C1c1c[nH]c2cc(Br)ccc12` [HAMACANTHIN A], the figures for the minimal inhibitory concentration (MIC) against Candida albicans, in the experiment with Cryptococcus neoformans and against Bacillus subtilis were 1.6 µg/mL (≈ 3.29 µM), 3.1 µg/mL (≈ 6.38 µM) and 3.1 µg/mL (≈ 6.38 µM), respectively.
Take `O=C1NC[C@H](c2c[nH]c3cc(Br)ccc23)N=C1c1c[nH]c2cc(Br)ccc12` [HAMACANTHIN B]: the minimal inhibitory concentration (MIC) (commonly the lowest concentration that inhibits growth of the organism) in the experiment on Candida albicans was 6.2 µg/mL (≈ 12.8 µM); in the experiment with Cryptococcus neoformans, 6.2 µg/mL (≈ 12.8 µM); against Bacillus subtilis, 1.6 µg/mL (≈ 3.29 µM).
